The record followed here is US20080044491A1, “METAL-CONTAINING FORMULATIONS AND METHODS OF USE” (priority 2006, published 2008).

The MIC is the least concentration at which growth counts as inhibited.

A short description of data set [1]: Compatibility of nanocrystalline silver with excipients. Format: physicochemical. The note with it: 10% aqueous solution of excipient with nanocrystalline silver, glass vial, 40° C. overnight.
The subject of a further data set is Enterobacter cloacae. Nature of the data set: MIC assay (microdilution). Format: cell-based. As to conditions: Ent. cloacae. (In broth dilution the organism is exposed to a series of concentrations in liquid medium.)
Another data set concerns Escherichia coli. Put plainly: MIC assay (microdilution). Format: cell-based.
In data set [2] the test system is MMP-9. Put plainly: Gelatin zymography of colonic homogenates. Format: in vivo, rat. The note with it: oral 100 mg/kg. The protocol:
Gelatin Zymography: Activities of MMP-9 and MMP-2 in colonic tissue homogenates were determined by gelatin zymography as described previously. Briefly, colonic homogenates were mixed with equal volume of zymograph sample buffer. Samples were loaded on a 10% SDS-polyacrylamide gel containing 0.1% gelatin. After electrophoresis, the SDS was removed from the gel by incubation with renaturing buffer containing 2% Triton-X-100 for 1 hour. The gel was incubated overnight in developing buffer containing 50 mM Tris-HCl, pH 7.8, 5 mM CaCl2, 0.2 M NaCl, 0.02% Brij-35. The gel was subsequently stained with Coumassie blue for 30 minutes and destained with destaining solution containing 8% acetic acid and 4% methanol. Gelatinolytic activity was determined as transparent bands against the blue background of stained gelatin. MMPs were identified by their molecular weight compared with the standards. Absence of a transparent band on the gel was evidenced as no MMP-9 or MMP-2 activity of the sample tested.

The nature of data set [3]: DNBS-induced colitis in rat: body weight change. Format: in vivo. As to conditions: rats with DNBS-induced colitis (FIGS. 10, 11). The source says:
Animals: Male Sprague-Dawley rats, weighing approximately 250-300 gm were purchased from Charles River Laboratories (Raleigh, N.C.). The animals were housed under standard conditions with free access to food and water. They were acclimatized for 2-3 days before commencing the experiments. The study protocol was approved by the Institutional Animal Care and Use Committees (IACUC).
Induction of ulcerative colitis: Colitis was produced according to published methods. Animals were anesthetized by intraperitoneal injection of 75 mg/kg of ketamine plus 5 mg/kg of xylazine. A single intracolonic injection of 120 mg/ml of dinitrobenzenesulfonic acid (DNBS) (Sigma Chemicals, St. Louis, Mo.) in 250 micro liter of 50% ethanol was administered through a Tom Cat catheter (Kendall Sovereign, Mansfield, Mass.) with a closed-end tip, connected to a 1 ml syringe and placed 7 cm proximal to the anus. Lubricant was applied to the tip of the catheter before injection, to protect from mucosal injury. After instillation of DNBS, 0.5 ml of air was insufflated and the catheter was removed. […]
Macroscopic Observations: Body weight was recorded daily and the animals were examined for their physical appearance. […] After scoring of the consistency of the stool the colon was rinsed in normal saline, examined and thickness of the colonic wall and number and size of ulcers were scored. […]

For the next data set, the system named is TNF-α. Put plainly: Immunohistochemical staining of colonic tissue. The note with it: DNBS colitis, five days oral treatment. Format: in vivo, rat. The protocol:
(§1) Immunohistochemistry: A Universal Streptavidin/Biotin detection system (Thermo Shandon, Pittsburgh, Pa.) was used for immunohistochemical staining of formalin fixed, paraffin embedded biopsies of the colon. After dewaxing, and hydration, sections were treated with protein blocking agent to reduce non-specific binding of antibodies. The tissues were then incubated with rabbit anti-rat TNF-α, or mouse anti-rat IL-12 p70 antibodies (Biosource International, Inc, Camarillo, Calif.); rabbit anti-rat IL-1β (Serotec, Raleigh, N.C.) or rabbit anti-rat MMP-9 antibody (Chemicon International, Telecuma, Calif.) in 1% bovine serum albumin in phosphate buffered saline. Incubations with secondary antibodies, streptavidin/biotin, and chromogenic detection of peroxidase were performed according to the manufacturer's protocol. Sections were counterstained, dehydrated, mounted and examined. The intensity of the immuno-peroxidase staining was graded as described previously. Expression of cytokines was graded as: 0, no staining in the section; 1, less than 25% of the section; 2, 25-50% of the section; 3, 50-75% of the section; 4, >75% of the section with significant staining.

In data set [4] the test system is MMP-9. Put plainly: Immunohistochemical staining of colonic tissue. Format: in vivo, rat. The note with it: vs placebo and no treatment (FIG. 19). The protocol:
as §1

The next data set concerns IL-1β. Put plainly: Immunohistochemical staining of colonic tissue. Format: in vivo, rat. As to conditions: DNBS colitis, five days oral treatment. The protocol: as §1
Data set [5] relates to DNBS-induced colitis. Nature of the data set: DNBS-induced colitis in rat: histopathological inflammation score of colon. Format: in vivo. As to conditions: oral, 100 mg/kg, five days. The protocol:
Histopathology: A piece of colonic tissue at 2-4 cm proximal to the anus was excised and fixed in 10% formalin and the sections were stained with hematoxylin and eosin. The remaining length of the colonic tissues was stored at −80° C. for subsequent biochemical assays. The histology slides were examined by a veterinary pathologist who was blinded to the treatment groups. The extent of microscopic mucosal damage of the colon was scored on scale of 0-5 as described with slight modification: 0=normal histological appearance; 1=histological damage limited to surface epithelium, mild infiltration of the submucosa; 2=focal ulceration and cell disruption limited to mucosa, abnormal appearance of colonic wall, mild infiltration of inflammatory cells; 3=focal, transmural inflammation and ulceration, with mild to moderate infiltration of inflammatory cells; 4=Extensive transmural ulceration and inflammation bordered by areas of normal mucosa, moderate infiltration of inflammatory cells; 5=extensive transmural ulceration and inflammation involving entire section from epithelium to serosa, severe infiltration of inflammatory cells.
Statistical Analysis: The results are expressed as the mean ±SE. […] The data were calculated with the aid of Instat Graph Pad Software. […]

Data set [6] relates to DNBS-induced colitis. Put plainly: DNBS-induced colitis in rat: total IBD score. Format: in vivo.
Protocol: Sulfasalazine (Sigma Chemicals, St Louis, Mo.), at a concentration of 120 mg/ml for intracolonic treatment and 30 mg/ml for oral treatment was used as the reference drug in all the experiments. Sulfasalazine was first dissolved in 0.1M NaOH at a concentration about 30-fold higher than the required final concentration, and then suspended in 1.5% PVA for oral dosing and 5.7% PVA for intracolonic dosing.
One group was not treated and served as no treatment group. Treatment began one day after administration of DNBS.
Macroscopic Observations: Body weight was recorded daily and the animals were examined for their physical appearance. After five days of treatment, animals were sacrificed. The colon was excised between the ileocecal junction and rectum, and opened longitudinally. After scoring of the consistency of the stool the colon was rinsed in normal saline, examined and thickness of the colonic wall and number and size of ulcers were scored. Stool consistency was graded on a scale of 0-3: 0=normal stool, well formed pellets rigid as normal; 1=loose stool, formed pellet with moisture, soft stool keeping in stool shape; 2=loose stool, stools that have abnormal form with much moisture, softer shapeless stool; 3=watery or bloody diarrhea.
Thickness of colonic wall was graded on a scale of 0-4: 0=normal, no thickness; 1=mild thickness in lower portion of the colon; 2=moderate thickness in localized area; 3=moderate thickness extending to the central portion of the colon; 4=severe thickness in the whole colon. Colonic ulceration was graded on a scale of 0-10: 0=no ulcers; 1=one small ulcer less than 2-3 mm; 2=one large ulcer more than 2-3 mm; 3=two large ulcerations more than 2-3 mm in diameter; 4=two or more sites of ulcerations extending 1 cm along the length; 5-10=when an area of ulceration extended more than 1 cm along the length of the colon, the score increases by 1 for each additional cm of involvement. The total IBD score, obtained by the sum of the scores of colonic ulcer, colon thickness and stool consistency for each animal, was calculated for each treatment group.
Statistical Analysis: The results are expressed as the mean ±SE. The statistical significance in the mean total IBD score, histopathological inflammation score, and the immunohistochemical staining of cytokines or MMP-9 was determined using Tukey-Kramer's multiple comparison tests following one-way analysis of variance (ANOVA). The data were calculated with the aid of Instat Graph Pad Software. Differences with a P value less than 0.05 were considered significant.
Methods: Colitis was induced in rats using DNBS as described in Example 25. Animals were treated intracolonically (250 μl of the test reagents) once a day for five days. […] Methods: Colitis was induced in rats using DNBS as described in Example 25. Animals were treated intracolonically (250 μl of the test reagents) once a day for five days.
Data set [7] concerns Staphylococcus epidermidis. Nature of the data set: MIC assay (microdilution). Format: cell-based. The note with it: S. epiderm (ATCC); lactate solutions; nanocrystalline silver = range for 12 samples.
Another data set deals with Streptococcus pyogenes. Put plainly: MIC assay (microdilution). Format: cell-based. As to conditions: lactate solutions, nanocrystalline silver = range for 12 samples.
In data set [8] the test system is Mycobacterium tuberculosis H37Ra (ATCC 25177). Format: cell-based.
Another data set deals with Pseudomonas aeruginosa. Nature of the data set: MIC assay (microdilution). Format: cell-based. The note with it: lactate solutions, nanocrystalline silver = range for 12 samples.
Another data set has as its system Streptococcus pneumoniae. Nature of the data set: MIC assay (microdilution). The note with it: lactate solutions, nanocrystalline silver = range for 12 samples. Format: cell-based.
For the next data set, the system named is Staphylococcus aureus. Nature of the data set: MIC assay (microdilution). Format: cell-based. As to conditions: lactate solutions, nanocrystalline silver = range for 12 samples.

In brackets after ≈: the same amount, converted by molar mass. Entries after “also recorded” stand apart in the source; their conditions may differ. Some results are limits rather than exact numbers.

Consider `CC(O)CO` (stereo not drawn) [Propylene glycol], for which, in data set [1], the “Reaction with nanocrystalline silver” value is “Discoloration”.

Take `CCOCCOCCO` [Transcutol, diethylene glycol monoethyl ether]: the “Reaction with nanocrystalline silver” value in data set [1] is given as “Grey color - no discoloration”.

As for `O=C([O-])c1ccccc1.[Na+]` [Sodium benzoate], the “Reaction with nanocrystalline silver” value in data set [1] is “White precipitate”.

On to `COC(=O)c1ccc(O)cc1` [Methylparaben], for which the “Reaction with nanocrystalline silver” value in data set [1] is reported as “Brown discoloration”.

As to Sodium parabens, in data set [1], the “Reaction with nanocrystalline silver” value was “Precipitation”.

With `CCCCCCCCCCCCCC(=O)OC(C)C` [Isopropyl myristate], the “Reaction with nanocrystalline silver” value in [1] was “Grey color - no discoloration”.

On to `OCc1ccccc1` [Benzyl alcohol], for which the “Reaction with nanocrystalline silver” value in [1] is given as “Grey/slightly red”.

`CCCCCCCCCCCCCCCCO` [Cetyl alcohol]: the “Reaction with nanocrystalline silver” value in data set [1] is given as “Grey color - no discoloration”.

For `OO` [Sample H2O2, hydrogen peroxide], the MIC in the data set on Enterobacter cloacae (Catalase/SOD +) is >500 µg/mL; against Enterobacter cloacae (Catalase/SOD −), 63 µg/mL (≈ 1850 µM); in the data set with Escherichia coli (E. coli, Catalase/SOD +), >500 µg/mL; in the data set on Escherichia coli (E. coli, Catalase/SOD −), 31 µg/mL (≈ 911 µM). Also, the “Reaction with nanocrystalline silver” value in data set [1] is reported as “Brown discoloration after drying”.

With `CCCCCCCCCCCCCCCCCC(=O)OCC(O)CO` (stereo not drawn) [Glycerol monostearate], in data set [1], the “Reaction with nanocrystalline silver” value is on record as “Brown discoloration”.

With `CCCOC(=O)c1ccc(O)cc1` [Propylparaben], in data set [1], the “Reaction with nanocrystalline silver” value is recorded as “Green discoloration”.

Consider `CCCCCCCCCCCCCCCCCCO` [Cetearyl alcohol], for which the “Reaction with nanocrystalline silver” value in [1] is reported as “Light brown/green/black”.

For `CCCCCCCCCCCCCCCCCC(=O)O` [Stearic acid], in data set [1], the “Reaction with nanocrystalline silver” value is listed as “Grey color - no discoloration”.

As to `O=C(O)c1cc(/N=N/c2ccc(S(=O)(=O)Nc3ccccn3)cc2)ccc1O` [sulfasalazine, salicylazosulfapyridine], the “MMP-9 activity (gelatin zymography)” value with MMP-9 [2] is “reduced MMP-9 activity”. The body weight change entry in data set [3] is “started gaining body weight after one day of treatment”. The “expression of TNF-α (immunohistochemical staining)” value in the data set with TNF-α was “significantly reduced the expression”. Further, in the data set on MMP-9 [4], the “expression of MMP-9 (immunohistochemical staining)” value is listed as “significantly reduced the expression”. Also, in the data set on IL-1β, the “expression of IL-1β (immunohistochemical staining)” value is listed as “significantly reduced the expression”. Besides, the “histopathological inflammation vs placebo and untreated” value in the data set on DNBS-induced colitis [5] is on record as “significantly reduced”. In addition, the “total IBD score vs placebo” value in the data set on DNBS-induced colitis [6] (intracolonic, 100 mg/kg, five days) was “Significant reduction; also recorded: significantly reduced total IBD score”; with DNBS-induced colitis [6] (intracolonic, 100 mg/kg, five days, listed as Sulfasalazine) it was “significantly reduced total IBD score”. Also, the “total IBD score” value with DNBS-induced colitis [6] (oral, 100 mg/kg, five days) was “significant reduction”.

In the case of silver oxide [Ag2O], the MIC was 2 µg/mL in data set [7]; 2 µg/mL in the data set on Streptococcus pyogenes (S. pyog (clin. 303)); 3 µg/mL against Streptococcus pyogenes (S. pyog (clin. 304)); 0.8 µg/mL against Pseudomonas aeruginosa (P. aerug (ATCC)); 2 µg/mL with Pseudomonas aeruginosa (P. aerug. (clin.)); 3 µg/mL in the data set on Streptococcus pneumoniae (S. pneumo (clin 314)). In addition, the MIC came to 2 µg/mL against Streptococcus pneumoniae (S. pneumo (clin 315)); 0.8 µg/mL in the data set with Escherichia coli (E. coli (ATCC), lactate solutions, nanocrystalline silver = range for 12 samples); 3 µg/mL with Staphylococcus aureus (S. aureus (ATCC)); 6 µg/mL in the data set with Staphylococcus aureus (S. aureus (clin.)). For the same compound, in [8], the “minimum inhibitory concentration (MIC)” value came out at 2.5 μg/ml silver. In addition, the “total IBD score vs placebo” value is “unable to show significant reduction” in the data set on DNBS-induced colitis [6] (intracolonic 250 μl once a day for five days, 0.25% homogenized); “but not 0.25% sonicated” in the data set with DNBS-induced colitis [6] (intracolonic 250 μl once a day for five days, 0.25% sonicated nanodispersion); “unable to show significant reduction” with DNBS-induced colitis [6] (intracolonic 250 μl once a day for five days, 0.5% homogenized); “significantly reduced the total IBD score” in the data set with DNBS-induced colitis [6] (intracolonic 250 μl once a day for five days, 0.5% sonicated nanodispersion); “significantly reduced the total IBD score” in the data set on DNBS-induced colitis [6] (intracolonic 250 μl once a day for five days, 1.5% sonicated nanodispersion).
